From ChEMBL document CHEMBL1201862, “PubChem BioAssay data set” (2004)
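Growth conditions: 96-well plates. Treatment: test compound, 48 hours, 5 concentrations. Analysis: linear interpolation between bracketing concentrations; unreached endpoints set to highest concentration. At the GI50, growth is halved.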 Active and inactive are the calls of the source. Cut-off read from the data, not from the text of the source: active = GI50 up to about 1.1 µM and inactive = higher.

Experiments:
Test in all cases: DTP human tumour cell line panel, 48 h
OVCAR-5 = test system: OVCAR-5
IGROV-1 = test system: IGROV-1
HOP-92 = test system: HOP-92
SNB-19 = test system: SNB-19
NCI-H23 = test system: NCI-H23
SK-MEL-5 = test system: SK-MEL-5
HCC 2998 = test system: HCC 2998
OVCAR-3 = test system: OVCAR-3
TK-10 = test system: TK-10
SN12C = test system: SN12C
MOLT-4 = test system: MOLT-4
OVCAR-8 = test system: OVCAR-8
RPMI-8226 = test system: RPMI-8226
SF-268 = test system: SF-268
CAKI-1 = test system: CAKI-1
SK-MEL-28 = test system: SK-MEL-28
MDA-MB-435 = test system: MDA-MB-435
MCF7 = test system: MCF7
PC-3 = test system: PC-3
NCI/ADR-RES = test system: NCI/ADR-RES

| SMILES | GI50 (OVCAR-5) | GI50 (IGROV-1) | GI50 (HOP-92) | GI50 (SNB-19) | GI50 (NCI-H23) | GI50 (SK-MEL-5) | GI50 (HCC 2998) | GI50 (OVCAR-3) | GI50 (TK-10) | GI50 (SN12C) | GI50 (MOLT-4) | GI50 (OVCAR-8) | GI50 (RPMI-8226) | GI50 (SF-268) | GI50 (CAKI-1) | GI50 (SK-MEL-28) | GI50 (MDA-MB-435) | GI50 (MCF7) | GI50 (PC-3) | GI50 (NCI/ADR-RES) |
| --- | --- | --- | --- | --- | --- | --- | --- | --- | --- | --- | --- | --- | --- | --- | --- | --- | --- | --- | --- | --- |
| CC1OC(n2cc(F)c(=O)[nH]c2=O)C=CC1=O (stereo not given) | 16 µM (inactive) | 29.8 µM (inactive) | 17.7 µM (inactive) | 17.4 µM (inactive) | 83 µM (inactive) | 17.4 µM (inactive) | 17.8 µM (inactive) | 16 µM (inactive) | 17 µM (inactive) | 16.4 µM (inactive) | 24.2 µM (inactive) | 20.7 µM (inactive) | 21 µM (inactive) | 19.6 µM (inactive) | 14.5 µM (inactive) | 17.7 µM (inactive) | – | – | – | – |
| CC1CC2OC(=O)CC2C[C@@H]1O[Si](C)(C)C(C)(C)C (stereo not given in full) | > 100 µM (inactive) | 74.5 µM (inactive) | 3.68 µM (inactive) | > 100 µM (inactive) | 63 µM (inactive) | 27 µM (inactive) | 43.3 µM (inactive) | 40.4 µM (inactive) | > 100 µM (inactive) | > 100 µM (inactive) | 21.5 µM (inactive) | 81.5 µM (inactive) | 21.7 µM (inactive) | 64.4 µM (inactive) | 70.5 µM (inactive) | – | – | – | – | – |
| CO/N=C/c1cc(OC)c(OC)c(OC)c1 | > 100 µM (inactive) | > 100 µM (inactive) | > 100 µM (inactive) | > 100 µM (inactive) | > 100 µM (inactive) | > 100 µM (inactive) | > 100 µM (inactive) | > 100 µM (inactive) | > 100 µM (inactive) | > 100 µM (inactive) | > 100 µM (inactive) | > 100 µM (inactive) | > 100 µM (inactive) | > 100 µM (inactive) | > 100 µM (inactive) | > 100 µM (inactive) | – | – | – | – |
| CC1CC(c2ccc([N+](=O)[O-])cc2)=Nc2ccccc2[S+]1[O-] (stereo not given) | 26.5 µM (inactive) | 15.6 µM (inactive) | 33.1 µM (inactive) | 18.2 µM (inactive) | 17.6 µM (inactive) | 15.5 µM (inactive) | 21.8 µM (inactive) | – | 27 µM (inactive) | 37.6 µM (inactive) | 24.8 µM (inactive) | 15.5 µM (inactive) | 4.58 µM (inactive) | 20.1 µM (inactive) | 20.9 µM (inactive) | 20 µM (inactive) | – | – | – | – |
| COC(=O)C(Cc1nc2ccccc2nc1O)/C(=N\NC(C)(C)C)C(=O)Nc1c(C)cc(Br)cc1C (stereo not given) | > 100 µM (inactive) | 36.3 µM (inactive) | 18.7 µM (inactive) | 31.1 µM (inactive) | 25.2 µM (inactive) | 18.3 µM (inactive) | 73.1 µM (inactive) | > 10 µM (inactive) | – | 42.7 µM (inactive) | 1.5 µM (inactive) | 21.9 µM (inactive) | 35.2 µM (inactive) | 22.3 µM (inactive) | 24.5 µM (inactive) | 20 µM (inactive) | – | – | – | – |
| COC1CC(CC2CCC(C)C(C(C)C(=O)O)O2)OC2(OC(C)(C3CCC(C)(C4OC(C5OC(O)(CO)C(C)CC5C)CC4C)O3)CC2C)C1C (stereo not given) | 8.11 µM (inactive) | 1.56 µM (inactive) | 1.07 µM (active) | 0.359 µM (active) | 0.295 µM (active) | 0.156 µM (active) | 0.186 µM (active) | 0.0406 µM (active) | 5.36 µM (inactive) | 0.257 µM (active) | 0.347 µM (active) | 1.38 µM (inactive) | 0.167 µM (active) | 1.88 µM (inactive) | 0.906 µM (active) | 1.43 µM (inactive) | 1.75 µM (inactive) | 0.15 µM (active) | 0.552 µM (active) | – |
| CC(N)Cc1ccc(F)cc1 (stereo not given) | > 100 µM (inactive) | > 100 µM (inactive) | > 100 µM (inactive) | > 100 µM (inactive) | > 100 µM (inactive) | > 100 µM (inactive) | > 100 µM (inactive) | > 100 µM (inactive) | > 100 µM (inactive) | > 100 µM (inactive) | > 100 µM (inactive) | > 100 µM (inactive) | > 100 µM (inactive) | > 100 µM (inactive) | > 100 µM (inactive) | > 100 µM (inactive) | – | – | – | – |
| CCNC(=O)OCc1c(COC(=O)NCC)c(-c2ccc(Cl)c(Cl)c2)n2c1CCC2 | 20.3 µM (inactive) | 9.31 µM (inactive) | 5.5 µM (inactive) | 21.5 µM (inactive) | 8.05 µM (inactive) | 14.9 µM (inactive) | 14.3 µM (inactive) | 17.6 µM (inactive) | 10.9 µM (inactive) | – | 5.06 µM (inactive) | 12.6 µM (inactive) | 7.18 µM (inactive) | 6.55 µM (inactive) | 3.01 µM (inactive) | 14.9 µM (inactive) | – | – | – | – |
| CCOC(=O)C(C(=O)OCC)C(=S)NC1OC(COC(C)=O)C(OC(C)=O)C(OC(C)=O)C1OC(C)=O (stereo not given) | > 100 µM (inactive) | > 100 µM (inactive) | > 100 µM (inactive) | > 100 µM (inactive) | > 100 µM (inactive) | > 100 µM (inactive) | > 100 µM (inactive) | > 100 µM (inactive) | – | > 100 µM (inactive) | > 100 µM (inactive) | > 100 µM (inactive) | > 100 µM (inactive) | > 100 µM (inactive) | > 100 µM (inactive) | > 100 µM (inactive) | > 100 µM (inactive) | > 100 µM (inactive) | – | > 100 µM (inactive) |
| CC1(C2CCC3(C)C(C2)C3Sc2ccccc2)OCCO1 (stereo not given) | 20.5 µM (inactive) | 35.7 µM (inactive) | 23.3 µM (inactive) | 27 µM (inactive) | 22.4 µM (inactive) | 17.3 µM (inactive) | 20.1 µM (inactive) | 14.4 µM (inactive) | 56.6 µM (inactive) | 20.4 µM (inactive) | 18 µM (inactive) | 31.8 µM (inactive) | 13.5 µM (inactive) | 34.8 µM (inactive) | 20.3 µM (inactive) | 24.9 µM (inactive) | – | – | – | – |
| O=C1OC(c2ccc([N+](=O)[O-])cc2)=N/C1=C\c1ccc(Cl)cc1 | 85.1 µM (inactive) | > 100 µM (inactive) | > 100 µM (inactive) | > 100 µM (inactive) | > 100 µM (inactive) | > 100 µM (inactive) | > 100 µM (inactive) | > 100 µM (inactive) | > 100 µM (inactive) | > 100 µM (inactive) | > 100 µM (inactive) | > 100 µM (inactive) | > 100 µM (inactive) | > 100 µM (inactive) | > 100 µM (inactive) | > 100 µM (inactive) | > 100 µM (inactive) | > 100 µM (inactive) | > 100 µM (inactive) | – |
| CSC1NC=Nc2c1sc(=S)n2-c1ccccc1 (stereo not given) | > 100 µM (inactive) | > 100 µM (inactive) | 83.8 µM (inactive) | > 100 µM (inactive) | > 100 µM (inactive) | > 100 µM (inactive) | > 100 µM (inactive) | 54.1 µM (inactive) | > 100 µM (inactive) | > 100 µM (inactive) | > 100 µM (inactive) | > 100 µM (inactive) | > 100 µM (inactive) | > 100 µM (inactive) | > 100 µM (inactive) | > 100 µM (inactive) | – | – | – | – |
| COc1cc([C@@H]2c3cc4c(cc3C[C@H]3COC(=O)[C@@H]32)OCO4)cc(OC)c1OC [DESOXYPODOPHYLLOTOXIN] | > 10.8 µM (inactive) | 0.0103 µM (active) | 0.199 µM (active) | 0.0092 µM (active) | 0.00714 µM (active) | 0.00791 µM (active) | 0.00791 µM (active) | – | < 0.01 µM (active) | 0.00995 µM (active) | 0.00893 µM (active) | 0.00721 µM (active) | – | 0.00843 µM (active) | 0.00711 µM (active) | 0.0125 µM (active) | 0.00261 µM (active) | 0.00875 µM (active) | 0.00353 µM (active) | – |
| C=C1C(=O)O[C@H]2C[C@@H](C)[C@@H]3CC(=O)OC[C@@]3(C)CC12 (stereo not given in full) | – | 51.6 µM (inactive) | 16.1 µM (inactive) | 53.1 µM (inactive) | 23.3 µM (inactive) | 34.3 µM (inactive) | 32.1 µM (inactive) | 28 µM (inactive) | 22.8 µM (inactive) | 21.6 µM (inactive) | 27.5 µM (inactive) | 17.9 µM (inactive) | 21.4 µM (inactive) | 27.4 µM (inactive) | 18 µM (inactive) | 19.7 µM (inactive) | – | – | – | – |
| O=C1N=C2N=C(c3ccc(Cl)cc3)N(c3ccc(Cl)cc3)N2Sc2ccccc21 | > 100 µM (inactive) | > 100 µM (inactive) | 86.5 µM (inactive) | 47.2 µM (inactive) | > 100 µM (inactive) | > 100 µM (inactive) | > 100 µM (inactive) | > 100 µM (inactive) | > 100 µM (inactive) | > 100 µM (inactive) | > 100 µM (inactive) | > 100 µM (inactive) | > 100 µM (inactive) | > 100 µM (inactive) | > 100 µM (inactive) | > 100 µM (inactive) | – | – | – | – |
| NC1=NC(c2ccccc2)CC(c2cc(Cl)ccc2O)=N1 (stereo not given) | 19.9 µM (inactive) | 19.3 µM (inactive) | 19.1 µM (inactive) | 16.7 µM (inactive) | 15.5 µM (inactive) | – | 15.9 µM (inactive) | 17.5 µM (inactive) | 25.1 µM (inactive) | 13.6 µM (inactive) | 14.2 µM (inactive) | 16.2 µM (inactive) | 15.2 µM (inactive) | 16 µM (inactive) | 14.9 µM (inactive) | 18.7 µM (inactive) | – | – | – | – |
| NC(=O)COc1ccccc1 | > 100 µM (inactive) | > 100 µM (inactive) | > 100 µM (inactive) | > 100 µM (inactive) | > 100 µM (inactive) | > 100 µM (inactive) | > 100 µM (inactive) | > 100 µM (inactive) | > 100 µM (inactive) | > 100 µM (inactive) | > 100 µM (inactive) | > 100 µM (inactive) | > 100 µM (inactive) | > 100 µM (inactive) | > 100 µM (inactive) | > 100 µM (inactive) | – | – | – | – |
